The results in this text go back to PMC3341351, “Down-Regulation of GABAA Receptor via Promiscuity with the Vasoactive Peptide Urotensin II Receptor. Potential Involvement in Astrocyte Plasticity” (PLoS ONE, 2012).

Assay [1] has as its system GABAAR in cerebellar astrocytes (UT co-expressed). Nature of the assay: Whole-cell patch-clamp of isoguvacine (Iso)-evoked depolarization/chloride current in cerebellar astrocytes co-cultured with granule neurons. In kind it is cell-based, rat. To be noted: Iso 10^−4 M; n = 78. On the procedure: (§1) Primary Cell Culture of astrocytes and astrocyte-neurone co-culture
(§2) Primary cultures of astrocytes were prepared as previously described. Briefly, cerebellum from 7-day-old (P7) Wistar rats were collected in DMEM/Ham-F12 (2∶1, v/v) culture medium supplemented with 2 mM glutamine, 1% insulin, 5 mM HEPES, 0.4% D(+)-glucose and 1% of the antibiotic-antimycotic solution. The tissues were disaggregated mechanically with a syringue equipped with a 1-mm gauge needle, and filtered through a 100-µm pore size mesh filter (Falcon, Becton Dickinson, Grenoble, France). Dissociated cells were resuspended in culture medium supplemented with 10% heat-inactivated FBS and seeded in 150-cm^2 culture flasks (Falcon) at a density of 20×10^6 cells/flask. Cells were incubated at 37°C in a humidified atmosphere (5% CO2) and the medium was changed twice a week. When cultures were confluent, the flasks were gently shaken on an orbital shaker at […] for 2 h. Dislodged cells were discarded and a second step of purification was performed at […] for 14–16 h. Remaining adhesive cells were collected by trypsination, centrifuged (800 g, 10 min) and plated in 150-cm^2 flasks. Suspended astrocytes were harvested and seeded in 24-well poly-L-lysine-coated plates. The purity of the cultures was previously assessed by counting the percentage of astrocytes immunostained with GFAP antibodies. The enriched cultures contained >99% astrocytes.
(§3) For astrocyte-neuron co-culture, granule cell cultures were prepared from cerebella of P7 Wistar rats as described previously. Isolated cells were plated on 14-mm culture dishes coated with poly-L-lysine (5 mM) at a density of 1.5×10^6 cells/dish and incubated at 37°C in a humidified atmosphere (5% CO2) for 1 to 10 days before use. Culture medium consisted of DMEM/Ham's F12 (75%/25%) supplemented with 10% FBS, 2 mM glutamine, 5 µg/ml insulin, 25 mM KCl and 1% of antibiotic-antimycotic solution. Co-cultures are obtained by seeding granule cells (1.5×10^6 cells/ml) on cerebellar astrocytes plated in 24-well plates after 12 hours. Co-cultures are maintained in the specific medium for neuron and incubated at 37°C in an humidified atmosphere (5% CO2) for several days.
(§4) The conventional whole-cell configuration of the patch-clamp technique was used to study the GABA-gated currents in astrocytes and granule neurons, UT stably transfected CHO, CHO-UT, and CHO transiently transfected with diverse variants of UT and GABAAR subunits. After 24-h transfection, cell culture coverslips were placed in a small chamber (1.5 ml) on a stage of a right microscope DMLFSA (Leica, Heidelberg, Germany) and superfused continuously with the following bath solution containing (in mM): NaCl, 150; KCl, 2.5; HEPES, 5; CaCl2, 2; MgCl2, 1; glucose, 10 (pH 7.4 adjusted with NaOH). The patch pipettes were fabricated from 1.5 mm (outer diameter) soft glass tubes on a two-step vertical pipette puller (List-Medical, L/M-3P-A, Darmstadt, Germany). […] ATP and GTP were added to the internal solution used to fill electrode just before recording. All recordings were obtained at RT with cells voltage-clamped at −70 mV. The GABAA receptor agonist isoguvacine was prepared in the extracellular solution and was applied to cells by pneumatic pressure ejection. To prevent desenzitization, isoguvacine was more often ejected during 5 s at 2-min intervals. ATP, GTP, or guanosine 5′-O-(2-thiodiphosphate) (GDPβS) were administered through the patch pipette solution. We investigated the effect of competitive inhibition of GDP-GTP exchange by including GDPβS in the pipette solution (in addition to the normal amount of GTP). For GDPβS and the KIC, immediately following patch rupture, GABA current recordings were performed and the experiment was commenced after an equilibration period of 15 min. […]
(In patch-clamp work, channel activity is measured electrically.)

Assay [2] relates to β3 GABAAR subunit in human U87 glioma. Nature of the assay: Cell surface ELISA of β3 GABAAR subunit in U87 glioma. To be noted: hUII 10^−8 M, 30 min, 37°C, at least 3 independent experiments in triplicates. Format: cell-based. On the procedure: The human cell line from glioblastoma U87 was obtained from the American Type Culture Collection (LGC Standards, Molsheim, France). U87 cells were maintained in DMEM containing 10% FBS and 1% sodium pyruvate. NHA-Astrocytes (Lonza, Walkersville, MD, USA) were cultivated in DMEM culture medium supplemented with 2 mM glutamine, 5 mM HEPES, 1% non essential amino acids, 1% sodium pyruvate, B27, 25 ng/ml EGF, 1% of the antibiotic-antimycotic solution and 10% FBS. All cells were incubated at 37°C in a humidified atmosphere containing 5% CO2. Culture media were replaced every three days.
Cells were plated at 50 000 cells/well in 96-well plates coated with 0.1 mg/ml poly-L-ornithine (Sigma-Aldrich). […] Cells were fixed with 4% PFA in PBS for 5 min at RT, washed in PBS, and then permeabilized in 0.05% triton X100 (only for permeabilized cells) and non specific binding were blocked with PBS containing 1% FBS for 30 min at RT. […] The cells were washed four times with PBS, a colorimetric alkaline phosphatase substrate was added (SuperSignal ELISA, Thermo scientific, Fisher) and the resulting color reaction was measured using a Viktor multilabel plate reader (PerkinElmer, Courtaboeuf, France). Background absorbance from samples transfected with non-tagged receptors or from cells without first antibodies were systematically measured. […]
Background: An ELISA detects its analyte on a solid surface through an enzyme-linked reagent.

The target in assay [3] is T1, GABAAR in cerebellar astrocytes (UT co-expressed) (Rattus norvegicus, UniProt P49684).
T1 construct: Astrocytes, recognized by strong GFAP staining show UT immunoreactivity; endogenous in cells; host or cells: primary rat (P7 Wistar) cerebellar astrocytes co-cultured with cerebellar granule neurons
T1 sequence (P49684 1-386): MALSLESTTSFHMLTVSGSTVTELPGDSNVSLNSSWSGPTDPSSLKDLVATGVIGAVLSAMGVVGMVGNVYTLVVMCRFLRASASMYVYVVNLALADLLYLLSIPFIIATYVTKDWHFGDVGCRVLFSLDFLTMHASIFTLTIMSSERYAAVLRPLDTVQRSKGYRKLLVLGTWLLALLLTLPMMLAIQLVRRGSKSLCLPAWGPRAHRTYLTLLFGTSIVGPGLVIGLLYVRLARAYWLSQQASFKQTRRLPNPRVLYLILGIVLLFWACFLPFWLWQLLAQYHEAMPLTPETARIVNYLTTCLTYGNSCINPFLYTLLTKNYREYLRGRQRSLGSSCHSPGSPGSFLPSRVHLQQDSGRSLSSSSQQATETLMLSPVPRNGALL
Nature of the assay: Whole-cell patch-clamp of isoguvacine (Iso)-evoked depolarization/chloride current in cerebellar astrocytes co-cultured with granule neurons. In kind it is cell-based. On the procedure:
as §1, §2, §3, §4

As to `O=C(O)C1=CCNCC1` [Iso, isoguvacine], the “Cells responding to isoguvacine, astrocytes cultured with granule neurons” value in assay [1] is listed as 48%. Regarding “ETPDCFWKYCV (disulfide) [hUII, human urotensin II, synthesized by solid phase methodology]”, the “β3-associated GABAAR subunit internalization, without UT319–389” value in assay [2] is 20%. Turning to “UII: Urotensin II, species not stated at that place (rUII in astrocytes, hUII in CHO and human cells)”, the Direct current activated result in assay [3] (UII 10^−8 M, in some cells) is given as “activated a small inward current”. In assay [3] (astrocytes), the “Recovery of the GABAAR current inhibition during washout” value is reported as “hardly recovered during washout”.
